Experimental findings from PubChem BioAssay (NCI) are described below.

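Exposure lasted 48 hours, with cells grown in 96-well plates and compounds tested at five concentrations. TGI is the concentration that stops growth completely.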

Assay in all cases: NCI-60 cell line screen, 48 h
The subject of assay [1] is COLO 205 colon.
The subject of assay [2] is HL-60(TB) leukemia.
Assay [3] deals with HOP-62 NSCLC.
The test system of assay [4] is M14 melanoma.
Assay [5] relates to OVCAR-4 ovarian.
The subject of assay [6] is SF-268 CNS.
For assay [7], the system named is SK-OV-3 ovarian.
The subject of assay [8] is TK-10 renal.
Assay [9] concerns U251 CNS.
Assay [10] concerns SNB-75 CNS.

Turning to `C[N+](C)(C)CCCSc1nc2ccccc2[nH]1`, the TGI in assay [1], in assay [2], in assay [3], in assay [4], in assay [5] and in assay [6] was over 100 µM throughout. The TGI in assay [7], in assay [8] and in [9] was over 100 µM in each case.

Regarding `OC1(c2ccc(Cl)cc2)C(N2CCCC2)c2ccccc2C2=NCCN21` (centres undefined), the TGI in assay [1] is 23.9 µM; in assay [2], 50.7 µM; in [3] it was over 100 µM; in [4] it was 31.7 µM; in assay [5], 87.9 µM; in assay [6], over 100 µM. The TGI in assay [7] was 57.6 µM; in [8], 40 µM; in [9] it was over 100 µM.

Take `CC(C)(C)C(=O)OCOP(=O)(OCOC(=O)C(C)(C)C)OCC1OC(n2ccc(=O)[nH]c2=O)C(N=[N+]=[N-])C1O` (centres undefined): the TGI in [1] amounted to 13.5 µM; in assay [2], 4.84 µM; in assay [3], 14.5 µM; in assay [4], 14.3 µM; in assay [5] it was 14 µM; in assay [6] it was 17.8 µM. The TGI worked out at 14.1 µM in assay [10], 22.3 µM in assay [8] and 10.5 µM in assay [9].

As to `Nc1nc(I)nc2c1ncn2C1OC(COS(N)(=O)=O)C(O)C1O` (centres undefined), the TGI was 0.0167 µM in [1]; 0.0836 µM in [3]; 0.028 µM in assay [4]; under 0.0158 µM in assay [5]; 0.018 µM in [6]; 0.0458 µM in assay [7]. Also, the TGI in assay [10] was under 0.0136 µM; in [8], 0.071 µM; in assay [9] it was 0.0243 µM.

For the compound `Cc1ccc(S(=O)(=O)c2ccsc2NC(=O)C(F)(F)F)cc1`, the TGI in assay [1] was 24.5 µM; in [3] it was over 100 µM; in assay [4], over 100 µM; in [5], over 100 µM; in [6] it was over 100 µM; in assay [7] it was over 100 µM. In addition, the figures for the TGI in assay [10], in [8] and in [9] were 77.8 µM, over 100 µM and over 100 µM, respectively.

Regarding `c1ccc(-c2nc3ccccc3n3c(CN4CCCCC4)nnc23)cc1`, the TGI in assay [1], in [3], in [4], in [5], in assay [6] and in assay [7] was over 100 µM throughout. The TGI in [10] was 40.7 µM; in [8], over 100 µM; in [9], over 100 µM.

Consider `Nc1nc(Cl)c(CO)c(NCC2(CO)CC(CCc3ccccc3)C2)n1` (centres undefined), for which the TGI is over 100 µM in [1]; 28.9 µM in assay [2]; 99.3 µM in assay [3]; 54.9 µM in assay [5]; over 100 µM in assay [6]; 51.2 µM in assay [10]. The TGI in assay [8] and in assay [9] was over 100 µM each time.

On to `O=C1N=C(SC2OC(CO)C(O)C(O)C2O)S/C1=C\c1ccccc1` (centres undefined), for which the TGI in assay [2], in assay [3], in assay [4], in [6], in assay [7] and in assay [10] was over 100 µM each time. The TGI in [8] was over 100 µM.

Consider `CCOCc1c(C)cc(C)c(C2C(C(=O)c3ccccc3)N3c4ccccc4C=CC3C2(C#N)C(=O)OCC)c1C` (centres undefined), for which the TGI in assay [1] was 53.7 µM; in [2], over 100 µM; in assay [4], over 100 µM; in assay [5], over 100 µM; in [6], over 100 µM; in assay [9], over 100 µM.

In the case of `O=c1[nH]nc(-c2ccccc2)n1-c1ccncc1`, the TGI in [1], in [2], in [3], in [4], in assay [5] and in assay [6] was over 100 µM throughout. Besides, the TGI in assay [10], in [8] and in [9] was over 100 µM throughout.

Consider `COC(=O)CC(c1cn(S(=O)(=O)c2ccc(C)cc2)c2ccccc12)C1C[C@@H](C(=O)OC)N(C(=O)OC(C)(C)C)C1=O` (some centres undefined), for which the TGI is 86.6 µM in assay [1]; over 100 µM in assay [2]; over 100 µM in [3]; over 100 µM in assay [4]; over 100 µM in assay [5]; over 100 µM in assay [6]. Moreover, the TGI in [10], in assay [8] and in [9] was over 100 µM each time.

Regarding `CCC(C)(C)C1CCC2c3c([nH]c4ccccc34)C3C(=O)N(c4ccc(OC)cc4)C(=O)C3C2C1` (centres undefined), the TGI in assay [1] is 24.7 µM; in assay [3], 23.2 µM; in assay [4], over 100 µM; in [5] it was over 100 µM; in [6], 43.6 µM; in assay [7] it was 77.6 µM. The TGI in assay [10] came to 42.2 µM; in assay [8], 56.2 µM; in assay [9], 54.8 µM.

On to `CC(CCC(=O)O)(c1ccc(O)cc1)c1ccc(O)cc1`, for which the TGI in assay [3], in [4], in assay [5], in assay [6], in [8] and in assay [9] was over 100 µM in each case.

Turning to `CCOC(=O)c1c(NC(=O)c2cccs2)sc2c1CCC2`, the TGI is over 100 µM in assay [1]; over 100 µM in assay [2]; over 100 µM in assay [3]; over 100 µM in assay [4]; over 100 µM in assay [6]; 26.2 µM in assay [10]. In addition, the TGI in [8] is over 100 µM.

As for `O=C1c2[nH]c3ccc(Br)cc3c2CCN1Cc1ccc(Cl)cc1`, the TGI was 34.5 µM in assay [1]; 99.1 µM in assay [2]; 26.4 µM in assay [3]; 28.5 µM in assay [4]; 34.3 µM in assay [5]; 33.2 µM in [6]. Moreover, the TGI worked out at 38.5 µM in assay [10], 27.7 µM in assay [8] and 26.8 µM in assay [9].
